Set-up in all cases: species or system AML cell lines (8); Primary HTS, single concentration about 10 uM, Cell Titer Glo viability; log10 luminescence, per cent inhibition relative to cycloheximide control
What all share (conditions): 72 h, relative to cycloheximide control, log10 luminescence, inhibitor
A general note: ATP-based viability assays read luminescence as a measure of living cells.

For assay [1], the system named is CHRF288-11.
Assay [2] relates to CMK.
The test system of assay [3] is CMS.
Assay [4] deals with M07e.
For assay [5], the system named is ML-2.
The subject of assay [6] is MOLM-13.
Assay [7] concerns MV4-11.
Assay [8] has as its system U937.

SMILES strings stand for the structures. Where two headings read alike, the source gives them in different places.

As for `COc1cc[nH]c1/C=C1\C(=O)Nc2ccc(F)c(C#CC3(O)CCNCC3)c21` [SJ000581013-1], in assay [1], the CHRF288-11 %inh is given as 71.86%. In assay [2], the CMK %inh was 93.46%. For the same compound, the CMS %inh in assay [3] is listed as 92.23%. In assay [4], the M07e %inh came out at 109.1%. In addition, the ML-2 %inh in assay [5] is reported as 57.56%. Also, in assay [6], the MOLM-13 %inh was 105.4%. Moreover, the MV4-11 %inh in assay [7] is 81.96%. Also, the U937 %inh in assay [8] is on record as 80.6%.

As to `O=c1oc2ccccc2c(O)c1Cc1c(O)c2ccccc2oc1=O` [SJ000285189-6, DICUMAROL], in assay [1] (CHRF288-11 %inh, 10 µM), the CHRF288-11 %inh stood at 3.41%. Moreover, in assay [2] (CMK %inh, 10 µM), the CMK %inh is -0.9245%. The CMS %inh in assay [3] (CMS %inh, 10 µM) is -1.661%. For the same compound, in assay [4] (M07e %inh, 10 µM), the M07e %inh came to 0.4208%. Besides, in assay [5] (ML-2 %inh, 10 µM), the ML-2 %inh is -0.8259%. In addition, the MOLM-13 %inh in assay [6] (MOLM-13 %inh, 10 µM) stood at 0.9251%. Besides, the MV4-11 %inh in assay [7] (MV4-11 %inh, 10 µM) amounted to 0.4793%. Besides, the U937 %inh in assay [8] (U937 %inh, 10 µM) was -0.6405%.

As for `COc1cccc(OC)c1C(=O)N[C@@H]1C(=O)N2[C@@H]1SC(C)(C)[C@@H]2C(=O)O` [SJ000285650-3, METHICILLIN SODIUM], the CHRF288-11 %inh in assay [1] is on record as 120.3%. Moreover, the CMK %inh in assay [2] is -1.148%. Moreover, the CMS %inh in assay [3] is -3.883%. For the same compound, in assay [4], the M07e %inh was -0.3426%. Also, in assay [5], the ML-2 %inh was -0.07595%. Besides, the MOLM-13 %inh in assay [6] is listed as -0.5712%. In assay [7], the MV4-11 %inh is recorded as -1.181%. The U937 %inh in assay [8] is 1.642%.

Regarding `Oc1ccc(-c2c(-c3ccccc3)nn3c(C(F)(F)F)cc(C(F)(F)F)nc23)cc1` [SJ000546500-1, PHTPP], the CHRF288-11 %inh in assay [1] is -1.975%. For the same compound, the CMK %inh in assay [2] is -2.936%. In addition, the CMS %inh in assay [3] is -0.8785%. Further, the M07e %inh in assay [4] is -1.02%. Also, the ML-2 %inh in assay [5] is on record as -0.1539%. For the same compound, in assay [6], the MOLM-13 %inh was -1.733%. For the same compound, in assay [7], the MV4-11 %inh was 0.8155%. In addition, the U937 %inh in assay [8] is recorded as -1.023%.

With `COc1cc2c(cc1Nc1nc(N3CCc4ccccc43)c3cc[nH]c3n1)N(C(=O)CN(C)C)CC2` [SJ000573043-1, N7699-100-1], the CHRF288-11 %inh in assay [1] was 128.5%. In addition, the CMK %inh in assay [2] is 123.9%. The CMS %inh in assay [3] was determined as 96.79%. For the same compound, the M07e %inh in assay [4] turned out to be 130.8%. The ML-2 %inh in assay [5] is 54.96%. For the same compound, the MOLM-13 %inh in assay [6] was 9.876%. For the same compound, in assay [7], the MV4-11 %inh was 75.42%. Also, the U937 %inh in assay [8] is listed as 74.23%.

On to `CCn1c(-c2nonc2N)nc2c(C#CC(C)(C)O)nc(CN3CCCC3)cc21` [SJ000573314-1, MR206418-021A1], for which, in assay [1], the CHRF288-11 %inh was 4.422%. In addition, the CMK %inh in assay [2] came out at 2.979%. Also, the CMS %inh in assay [3] turned out to be 3.945%. The M07e %inh in assay [4] is reported as -3.096%. The ML-2 %inh in assay [5] was -0.4194%. In assay [6], the MOLM-13 %inh was -1.58%. Moreover, the MV4-11 %inh in assay [7] turned out to be 2.964%. Further, in assay [8], the U937 %inh came to 4.345%.

For the compound `COc1ccccc1CN=C1NC(=O)/C(=C/c2ccc3ncccc3c2)S1` [SJ000581141-1], the CHRF288-11 %inh in assay [1] is listed as -2.393%. Also, the CMK %inh in assay [2] was determined as 34.72%. Moreover, in assay [3], the CMS %inh came to 6.446%. Also, in assay [4], the M07e %inh came to 13.46%. The ML-2 %inh in assay [5] is listed as 2.098%. In addition, in assay [6], the MOLM-13 %inh was determined as 11.11%. Further, in assay [7], the MV4-11 %inh was 3.855%. Further, in assay [8], the U937 %inh was 8.458%.

Consider `Cn1c(=O)c(Cc2ccc(F)cc2F)cc2cnc(NC3CCOCC3)nc21` [SJ000581032-1], for which the CHRF288-11 %inh in assay [1] is -3.947%. Besides, in assay [2], the CMK %inh is on record as 3.89%. In assay [3], the CMS %inh is given as 0.5188%. Further, the M07e %inh in assay [4] is reported as 1.669%. Also, in assay [5], the ML-2 %inh is 0.882%. Besides, the MOLM-13 %inh in assay [6] amounted to 4.514%. For the same compound, the MV4-11 %inh in assay [7] amounted to 0.6569%. Further, in assay [8], the U937 %inh is recorded as -0.7764%.

`O=C(O[C@H]1C[C@H]2CC[C@@H](C1)[N+]21CCCC1)C(O)(c1ccccc1)c1ccccc1` [SJ000556733-1, TROSPIUM CHLORIDE]: the CHRF288-11 %inh in assay [1] (CHRF288-11 %inh, 10 µM) worked out at 1.082%. Besides, the CMK %inh in assay [2] (CMK %inh, 10 µM) was -8.303%. In assay [3] (CMS %inh, 10 µM), the CMS %inh is given as 1.711%. Further, the M07e %inh in assay [4] (M07e %inh, 10 µM) is given as 0.3246%. Also, in assay [5] (ML-2 %inh, 10 µM), the ML-2 %inh was 2.085%. The MOLM-13 %inh in assay [6] (MOLM-13 %inh, 10 µM) is -2.987%. For the same compound, the MV4-11 %inh in assay [7] (MV4-11 %inh, 10 µM) is on record as -0.2163%. Besides, the U937 %inh in assay [8] (U937 %inh, 10 µM) was -2.05%.

`Cn1cc(C2=C(c3cn(C)c4cc(N)ccc34)C(=O)NC2=O)c2ccccc21` [SJ000581154-1]: the CHRF288-11 %inh in assay [1] is 40.91%. Moreover, the CMK %inh in assay [2] is recorded as 105.6%. Also, in assay [3], the CMS %inh was found to be 49.07%. Further, the M07e %inh in assay [4] worked out at 38.42%. In addition, in assay [5], the ML-2 %inh came to 25.1%. In addition, the MOLM-13 %inh in assay [6] was determined as 77.98%. Moreover, in assay [7], the MV4-11 %inh worked out at 66.53%. In addition, the U937 %inh in assay [8] worked out at 39.79%.

On to `Cc1ccc(C)c(OCCCC(C)(C)C(=O)O)c1` [SJ000285775-5, GEMFIBROZIL], for which the CHRF288-11 %inh in assay [1] (CHRF288-11 %inh, 10 µM) is 15.66%. Besides, in assay [2] (CMK %inh, 10 µM), the CMK %inh stood at 52.47%. The CMS %inh in assay [3] (CMS %inh, 10 µM) came to 12.02%. In assay [4] (M07e %inh, 10 µM), the M07e %inh is given as 4.331%. In addition, the ML-2 %inh in assay [5] (ML-2 %inh, 10 µM) is 5.256%. Further, the MOLM-13 %inh in assay [6] (MOLM-13 %inh, 10 µM) is reported as 7.787%. For the same compound, the MV4-11 %inh in assay [7] (MV4-11 %inh, 10 µM) worked out at 21.39%. The U937 %inh in assay [8] (U937 %inh, 10 µM) was 12.09%.

For `CNC(=O)[C@@H](NC(=O)[C@H](CC(C)C)[C@H](O)C(=O)NO)C(C)(C)C` [SJ000772411-2], the CHRF288-11 %inh in assay [1] (CHRF288-11 %inh, 10 µM) is listed as 28.21%. In addition, the CMK %inh in assay [2] (CMK %inh, 10 µM) is given as 5.663%. In addition, in assay [3] (CMS %inh, 10 µM), the CMS %inh is reported as 3.256%. Also, in assay [4] (M07e %inh, 10 µM), the M07e %inh is recorded as 4.087%. Moreover, the ML-2 %inh in assay [5] (ML-2 %inh, 10 µM) came to 2.823%. Further, the MOLM-13 %inh in assay [6] (MOLM-13 %inh, 10 µM) is recorded as 10.77%. For the same compound, the MV4-11 %inh in assay [7] (MV4-11 %inh, 10 µM) came out at 3.499%. In addition, the U937 %inh in assay [8] (U937 %inh, 10 µM) came out at 3.1%.

With `Clc1cnc(Oc2ccc(Oc3ncc(Cl)cc3Cl)cc2)c(Cl)c1` [SJ000288225-4, TCPOBOP], the CHRF288-11 %inh in assay [1] was found to be 4.243%. Further, the CMK %inh in assay [2] is reported as -2.209%. Also, in assay [3], the CMS %inh is on record as -0.7867%. Also, the M07e %inh in assay [4] was determined as 1.992%. The ML-2 %inh in assay [5] is 1.606%. The MOLM-13 %inh in assay [6] is reported as -2.278%. The MV4-11 %inh in assay [7] was 0.7208%. Moreover, the U937 %inh in assay [8] is given as -1.704%.

Take `CCn1c(-c2nonc2N)nc2c(C#CC(C)(C)O)ncc(OC3CCNCC3)c21` [SJ000573340-1, N2972-34-A1]: the CHRF288-11 %inh in assay [1] was 8.441%. Besides, the CMK %inh in assay [2] is recorded as 1.4%. Also, in assay [3], the CMS %inh is recorded as 5.982%. For the same compound, the M07e %inh in assay [4] came to 6.128%. The ML-2 %inh in assay [5] turned out to be 4.911%. For the same compound, the MOLM-13 %inh in assay [6] turned out to be 25.8%. Further, in assay [7], the MV4-11 %inh is listed as 14.73%. For the same compound, the U937 %inh in assay [8] amounted to 50.59%.

For the compound `Nc1nc(=O)n([C@@H]2CS[C@H](CO)O2)cc1F` [SJ000556750-1, EMTRICITABINE], in assay [1], the CHRF288-11 %inh is listed as 2.371%. Besides, the CMK %inh in assay [2] came to 2.775%. In addition, in assay [3], the CMS %inh is -3.992%. Further, the M07e %inh in assay [4] is reported as -0.1929%. Also, the ML-2 %inh in assay [5] is reported as 2.01%. Besides, in assay [6], the MOLM-13 %inh is given as 20.59%. Further, the MV4-11 %inh in assay [7] is -2.268%. The U937 %inh in assay [8] was -2.394%.

In the case of `Cc1ccc(=O)n(-c2ccccc2)c1` [SJ000288087-4, PIRFENIDONE], the CHRF288-11 %inh in assay [1] turned out to be 10.42%. In addition, the CMK %inh in assay [2] is given as -5.144%. Further, the CMS %inh in assay [3] is 4.387%. Moreover, in assay [4], the M07e %inh was -1.785%. In assay [5], the ML-2 %inh is -0.2811%. In addition, the MOLM-13 %inh in assay [6] turned out to be 2.774%. Besides, the MV4-11 %inh in assay [7] came to 8.387%. Also, the U937 %inh in assay [8] is -2.099%.

In the case of `Cn1cc(C2=C(c3cn(C)c4ccc(N)cc34)C(=O)NC2=O)c2ccccc21` [SJ000580967-1], the CHRF288-11 %inh in assay [1] turned out to be 11.3%. For the same compound, in assay [2], the CMK %inh was determined as 43.44%. Besides, in assay [3], the CMS %inh is given as 2.341%. The M07e %inh in assay [4] was found to be 2.999%. In assay [5], the ML-2 %inh is recorded as 0.6002%. In assay [6], the MOLM-13 %inh is 8.368%. Also, the MV4-11 %inh in assay [7] is 0.6883%. Also, in assay [8], the U937 %inh is 7.089%.

The values are drawn from PMC6522510 (Nature Communications, 2019).
